“Also recorded” adds a separate entry of the source.
Tests used:
[1] = molecular target: T1, soluble epoxide hydrolase (sEH) (Homo sapiens, UniProt P34913); test: sEH inhibitory activity, fluorescence-based assay with PHOME as substrate; type: biochemical; details: recombinant sEH; for IC50: 37 °C, mean ± SD (n = 3); for sEH inhibitory activity (in words): compounds tested 0.1–100.0 μM
T1 construct: purchased Cayman Chemical Company 100116
T1 sequence (P34913 1-555): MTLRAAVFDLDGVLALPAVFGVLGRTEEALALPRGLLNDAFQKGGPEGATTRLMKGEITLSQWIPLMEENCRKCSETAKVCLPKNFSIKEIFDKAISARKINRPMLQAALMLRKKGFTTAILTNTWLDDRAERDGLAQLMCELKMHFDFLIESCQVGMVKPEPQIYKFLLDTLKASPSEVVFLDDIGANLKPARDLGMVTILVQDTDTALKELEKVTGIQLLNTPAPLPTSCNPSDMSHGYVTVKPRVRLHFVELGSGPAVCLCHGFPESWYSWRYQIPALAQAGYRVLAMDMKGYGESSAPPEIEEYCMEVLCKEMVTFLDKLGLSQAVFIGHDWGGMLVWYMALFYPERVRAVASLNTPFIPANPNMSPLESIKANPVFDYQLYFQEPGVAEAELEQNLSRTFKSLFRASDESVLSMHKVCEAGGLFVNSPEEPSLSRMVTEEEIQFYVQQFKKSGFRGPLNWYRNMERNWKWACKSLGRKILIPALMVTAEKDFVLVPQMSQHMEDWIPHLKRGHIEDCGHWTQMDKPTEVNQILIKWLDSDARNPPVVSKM
Method: The sEH inhibitory activities of compounds 1−10 were evaluated using a fluorescence-based assay with 3-phenyl-cyano(6-methoxy-2-naphthalenyl)methyl ester-2-oxiraneacetic acid (PHOME) as the substrate.
The epoxide hydrolase (sEH) enzyme is a recombinant enzyme with a concentration of 0.8 mg/mL, purchased from the Cayman Chemical Company in the United States (catalogue number: 100116, batch number: 069065) and stored at −80 °C to ensure its activity.
The enzymatic reactions were performed in a 96-well plate at 37 °C, where sEH hydrolyzed the fluorogenic substrate PHOME (MedChemExpress LLC., Princeton, NJ, USA) in the presence of each compound. The fluorescence signals were measured at an excitation wavelength of 330 nm and an emission wavelength of 465 nm. Wells containing the substrate alone (without the test compounds) served as negative controls. […] The inhibitory activity of each compound was evaluated based on the reduction in the formation of 6-methoxy-2-naphthaldehyde, a fluorescent product generated by PHOME hydrolysis.

[2] = molecular target: T1, soluble epoxide hydrolase (sEH); test: sEH kinetic study (Lineweaver–Burk plots, varying inhibitor and PHOME concentrations); type: biochemical; details: compound 1 to 5 μM, PHOME 1 to 20 μM
Method: Furthermore, the inhibition mechanisms of phenolic amides 6–8 and 10 were elucidated by kinetic analysis using various concentrations of compounds and the substrate, PHOME.
The inhibitory behaviour of compounds 6–8 and 10 against sEH was examined by analyzing kinetic changes at varying inhibitor concentrations. Each compound was tested at concentrations ranging from 1 to 5 μM, whereas the substrate PHOME was applied at concentrations ranging from 1 to 20 μM. The experimental data were fitted to the Michaelis–Menten equation to evaluate the kinetic parameters. The mode of inhibition was further determined using Lineweaver–Burk plots. Data were analyzed and plotted using GraphPad Prism 7 (GraphPad Software Inc., San Diego, CA, USA).

SMILES | IC50 [1] | sEH inhibitory activity (in words) [1] | mechanism (mode) of sEH inhibition [2]
COc1cc(/C=C/C(=O)NCCc2ccc(O)c(O)c2)ccc1O[C@@H]1O[C@H](CO)[C@H](O)[C@H](O)[C@H]1O [Compound 6, cimicifugamide A] | 8.74 ± 0.42 µM | most potent sEH inhibitory activity | non-competitive
COc1ccc2c(C(=O)C=C(C)C)c[nH]c2c1 [Compound 1, 6-methoxy-3-(3-methyl-1-oxo-2-butenyl) 1H indole] | > 100 µM | lack of inhibitory activity | 
COc1cc(CCNC(=O)/C=C/c2ccc(O[C@@H]3O[C@H](CO)[C@H](O)[C@H](O)[C@H]3O)c(OC)c2)ccc1O [Compound 7, cimicifugamide] | 15.63 ± 0.1 µM | moderate inhibitory activity | mixed-type competitive
COc1cc(C=CC(=O)NCCc2ccc(OC3OC(CO)C(O)C(O)C3O)c(OC)c2)ccc1O (centres unmarked) [Compound 9, cimicifugamide C] | > 100 µM | did not show significant inhibitory activity; also recorded: no sEH inhibitory activity | 
CC(=O)NCCc1ccc(O)c(OC2OC(CO)C(O)C(O)C2O)c1 [Compound 4, N-acetyldopamine-3-O-β-D-allopyranoside] | > 100 µM | did not show significant inhibitory activity | 
CC(=O)NCCc1ccc(O)c(O[C@@H]2O[C@H](CO)[C@@H](O)[C@H](O)[C@H]2O)c1 [Compound 5, N-acetyldopamine-3-O-β-D-glucopyranoside] | > 100 µM | did not show significant inhibitory activity | 
CC(C)=CC(=O)c1c[nH]c2ccccc12 [Compound 2, 3-(3-methyl-1-oxo-2-butenyl) 1H indole] | > 100 µM | lack of inhibitory activity | 
CC(C)CC[C@]1(O)C(=O)N([C@@H]2O[C@H](CO)[C@@H](O)[C@H](O)[C@H]2O)c2ccccc21 [Compound 3, (3R)-1-(β-D-glucopyranosyl)-3-hydroxy-3-(3-methylbutyl)-2-oxindole] | > 100 µM |  | 

Second part, the compound after the results:

IC50 [1] | sEH inhibitory activity (in words) [1] | mechanism (mode) of sEH inhibition [2] | SMILES
17.2 ± 0.31 µM | moderate inhibitory activity | uncompetitive | COc1cc(/C=C/C(=O)NCCc2ccc(O)cc2)ccc1O [Compound 10, N-trans-feruloyl tyramine]
20.6 ± 0.89 µM | moderate inhibitory activity | mixed-type competitive | COc1cc(/C=C/C(=O)NCCc2ccc(O)cc2)ccc1O[C@@H]1O[C@H](CO)[C@H](O)[C@H](O)[C@H]1O [Compound 8, demethoxycimicifugamide]

From publication PMC12196358, “Indole Alkaloids and Phenolic Amides from the Rhizomes of Cimicifuga heracleifolia and Their In Vitro Soluble Epoxide Hydrolase (sEH) Inhibitory Activity” (Plants, 2025)
